Results on 48 compounds are retold here after patent US20230079819A1, “COMPOUNDS AND USES THEREOF” (Foghorn Therapeutics Inc., priority 2019, published 2023).

Some results are limits rather than exact numbers.

One assay concerns the target T1, BRG-1 (Homo sapiens, UniProt P51532).
T1 construct: made in house; host or cells: High Five insect cells
The experiment in a line: ATPase catalytic activity of BRG-1, ADP-Glo in vitro biochemical assay. To be noted: ATPase catalytic activity, 30 nM BRG-1, 400 μM ATP, read-out: BRG1 IP50. In general terms: ADP-Glo turns the ADP formed in a reaction into a luminescent signal.

Another assay addresses T2, BRM (Homo sapiens, UniProt P51531).
T2 construct: made in house; host or cells: High Five insect cells
The assay can be described thus: ATPase catalytic activity of BRM, ADP-Glo in vitro biochemical assay. To be noted: ATPase catalytic activity, 30 nM BRM, 400 μM ATP, read-out: BRM IP50.

T2 sequence (P51531 whole entry): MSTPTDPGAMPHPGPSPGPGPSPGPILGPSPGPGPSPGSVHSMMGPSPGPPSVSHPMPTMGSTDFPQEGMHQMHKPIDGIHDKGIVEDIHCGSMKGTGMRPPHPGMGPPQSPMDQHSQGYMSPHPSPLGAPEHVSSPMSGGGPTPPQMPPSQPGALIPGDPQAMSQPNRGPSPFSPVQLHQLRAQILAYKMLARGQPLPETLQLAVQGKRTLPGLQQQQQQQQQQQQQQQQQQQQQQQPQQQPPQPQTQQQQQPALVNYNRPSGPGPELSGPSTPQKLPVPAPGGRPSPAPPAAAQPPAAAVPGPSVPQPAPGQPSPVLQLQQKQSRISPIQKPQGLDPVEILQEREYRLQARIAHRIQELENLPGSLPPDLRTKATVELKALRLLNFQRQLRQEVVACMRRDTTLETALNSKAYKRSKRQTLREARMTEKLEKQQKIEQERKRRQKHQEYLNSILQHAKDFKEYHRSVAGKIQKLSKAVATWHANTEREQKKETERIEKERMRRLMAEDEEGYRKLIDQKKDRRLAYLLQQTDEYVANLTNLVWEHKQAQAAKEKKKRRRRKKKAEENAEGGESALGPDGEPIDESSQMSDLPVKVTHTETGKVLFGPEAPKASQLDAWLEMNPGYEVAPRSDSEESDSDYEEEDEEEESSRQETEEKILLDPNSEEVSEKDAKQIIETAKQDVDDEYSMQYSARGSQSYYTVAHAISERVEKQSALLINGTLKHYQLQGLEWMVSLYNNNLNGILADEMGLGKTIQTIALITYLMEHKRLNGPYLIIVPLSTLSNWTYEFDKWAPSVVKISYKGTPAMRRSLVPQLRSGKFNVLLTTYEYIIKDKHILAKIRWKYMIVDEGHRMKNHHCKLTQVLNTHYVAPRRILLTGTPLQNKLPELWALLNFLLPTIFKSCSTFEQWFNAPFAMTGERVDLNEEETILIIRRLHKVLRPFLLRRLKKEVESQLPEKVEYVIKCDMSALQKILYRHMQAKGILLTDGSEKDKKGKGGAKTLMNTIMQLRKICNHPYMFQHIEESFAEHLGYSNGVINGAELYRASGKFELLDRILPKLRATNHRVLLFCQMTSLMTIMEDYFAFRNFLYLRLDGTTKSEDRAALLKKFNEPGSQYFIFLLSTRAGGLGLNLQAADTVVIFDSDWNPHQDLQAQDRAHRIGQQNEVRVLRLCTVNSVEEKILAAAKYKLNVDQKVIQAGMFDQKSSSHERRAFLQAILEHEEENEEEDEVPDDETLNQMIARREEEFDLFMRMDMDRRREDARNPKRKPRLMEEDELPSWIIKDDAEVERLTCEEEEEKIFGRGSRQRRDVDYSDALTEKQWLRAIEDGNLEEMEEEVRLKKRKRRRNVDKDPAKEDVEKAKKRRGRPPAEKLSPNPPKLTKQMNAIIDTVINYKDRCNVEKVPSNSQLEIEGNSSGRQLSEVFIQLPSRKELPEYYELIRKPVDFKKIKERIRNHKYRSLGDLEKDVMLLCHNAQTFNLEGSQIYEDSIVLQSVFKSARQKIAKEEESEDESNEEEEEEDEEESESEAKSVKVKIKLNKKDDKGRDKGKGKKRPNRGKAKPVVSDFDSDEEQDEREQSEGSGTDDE
T1 sequence (P51532 whole entry): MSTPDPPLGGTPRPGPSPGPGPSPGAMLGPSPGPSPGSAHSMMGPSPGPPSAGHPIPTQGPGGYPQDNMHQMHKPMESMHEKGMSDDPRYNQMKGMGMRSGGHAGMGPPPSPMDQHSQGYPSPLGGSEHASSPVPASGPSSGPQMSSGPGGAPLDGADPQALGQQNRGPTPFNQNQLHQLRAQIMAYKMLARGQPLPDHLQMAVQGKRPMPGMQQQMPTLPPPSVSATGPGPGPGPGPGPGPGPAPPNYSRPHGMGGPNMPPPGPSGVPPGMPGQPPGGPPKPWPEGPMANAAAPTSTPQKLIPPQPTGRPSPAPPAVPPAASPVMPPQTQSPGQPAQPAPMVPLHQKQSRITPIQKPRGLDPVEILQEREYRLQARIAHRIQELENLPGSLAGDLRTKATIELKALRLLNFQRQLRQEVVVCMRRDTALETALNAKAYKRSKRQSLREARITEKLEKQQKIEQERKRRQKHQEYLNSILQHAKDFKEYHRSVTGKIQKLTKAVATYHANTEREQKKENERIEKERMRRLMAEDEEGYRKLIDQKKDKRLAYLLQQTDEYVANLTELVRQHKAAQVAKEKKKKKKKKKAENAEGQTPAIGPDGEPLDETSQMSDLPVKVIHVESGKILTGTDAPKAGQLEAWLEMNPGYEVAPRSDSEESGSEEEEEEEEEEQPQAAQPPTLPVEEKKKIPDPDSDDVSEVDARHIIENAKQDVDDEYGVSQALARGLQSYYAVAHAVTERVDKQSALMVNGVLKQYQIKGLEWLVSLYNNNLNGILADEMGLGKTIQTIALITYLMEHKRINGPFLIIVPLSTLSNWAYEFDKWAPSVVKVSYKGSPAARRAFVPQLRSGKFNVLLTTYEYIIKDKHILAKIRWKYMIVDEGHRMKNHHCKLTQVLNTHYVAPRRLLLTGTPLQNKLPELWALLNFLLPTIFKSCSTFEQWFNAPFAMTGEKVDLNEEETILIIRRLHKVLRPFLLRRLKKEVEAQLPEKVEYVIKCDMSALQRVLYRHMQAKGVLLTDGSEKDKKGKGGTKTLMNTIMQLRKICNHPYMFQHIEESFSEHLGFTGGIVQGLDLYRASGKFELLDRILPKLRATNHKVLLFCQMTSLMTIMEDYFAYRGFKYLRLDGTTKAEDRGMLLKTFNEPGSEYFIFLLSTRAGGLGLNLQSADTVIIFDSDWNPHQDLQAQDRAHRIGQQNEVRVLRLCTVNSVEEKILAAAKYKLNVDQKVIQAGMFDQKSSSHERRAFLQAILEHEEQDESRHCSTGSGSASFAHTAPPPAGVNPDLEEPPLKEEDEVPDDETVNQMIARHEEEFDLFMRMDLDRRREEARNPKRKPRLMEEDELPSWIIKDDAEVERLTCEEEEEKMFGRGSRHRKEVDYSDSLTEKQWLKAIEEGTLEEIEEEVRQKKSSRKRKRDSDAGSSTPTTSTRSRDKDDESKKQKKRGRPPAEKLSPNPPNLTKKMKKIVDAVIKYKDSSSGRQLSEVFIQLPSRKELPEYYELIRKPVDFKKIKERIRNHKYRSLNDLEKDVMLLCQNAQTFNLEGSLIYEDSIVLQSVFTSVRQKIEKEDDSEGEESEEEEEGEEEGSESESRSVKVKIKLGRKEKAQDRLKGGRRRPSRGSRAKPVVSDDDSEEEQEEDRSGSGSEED

On to `CC1(n2ccc(C(=O)NCC(=O)Nc3nc(-c4cccc(N5CCC5)c4F)cs3)c2)COC1` [Compound 525], for which the IC50 on BRG-1 and on BRM was more than 10 nM each time.
Regarding `COC[C@H](NC(=O)c1ccn(C2(C#N)CC2)c1)C(=O)Nc1nc(-c2ccc3ccn(C)c(=O)c3c2)cs1` [Compound 526], the IC50 on BRG-1 and at BRM was more than 10 nM each time.
`C[C@H]1Cc2ccc(-c3csc(NC(=O)CNC(=O)c4ccn(S(C)(=O)=O)c4)n3)cc2O1` [Compound 527]: the IC50 on BRG-1 and on BRM was more than 10 nM in each case.
For `N#CC1(n2ccc(C(=O)NCC(=O)Nc3nc(-c4cccc(OCC5(F)COC5)c4)cs3)c2)CC1` [Compound 528], the IC50 at BRG-1 and at BRM was more than 100 nM each time.
For `Cc1cncc(-c2cccc(-c3csc(NC(=O)CNC(=O)c4ccn(C5(C)COC5)c4)n3)c2)n1` [Compound 529], the IC50 at BRG-1 is more than 10 nM; on BRM, less than 10 nM.
In the same order, the values of `CO[C@H]1C[C@H](c2cccc(-c3csc(NC(=O)CNC(=O)c4ccn(S(C)(=O)=O)c4)n3)c2)C1` [Compound 530] are more than 10 nM and more than 10 nM.
In the same order, the values of `CO[C@H]1C[C@H](c2ccc(-c3csc(NC(=O)CNC(=O)c4ccn(S(C)(=O)=O)c4)n3)cc2)C1` [Compound 531] are more than 10 nM and more than 10 nM.
The like results for `C[C@H](NC(=O)c1ccn(C2(C#N)CC2)c1)C(=O)Nc1nc(-c2ccc3ccn(C)c(=O)c3c2)cs1` [Compound 532] were, in that order, more than 10 nM and more than 10 nM.
With `CS(=O)(=O)n1ccc(C(=O)NCC(=O)Nc2nc(-c3cccc(N4CCC(C(F)F)CC4)c3)cs2)c1` [Compound 543], the IC50 on BRG-1 and on BRM was more than 10 nM each time.
Turning to `CS(=O)(=O)n1ccc(C(=O)NCC(=O)Nc2nc(-c3cc(F)c4c(c3)CCO4)cs2)c1` [Compound 544], the IC50 on BRG-1 and on BRM was less than 10 nM each time.
For the compound `COC[C@H](NC(=O)c1ccn(S(C)(=O)=O)c1)C(=O)Nc1nc(-c2ccc(F)c(OC3CC3)c2)cs1` [Compound 545], the results for the IC50 at BRG-1 and on BRM were more than 100 nM and more than 10 nM, respectively.
Consider `CN1CCOc2c(F)cc(-c3csc(NC(=O)CNC(=O)c4ccn(S(C)(=O)=O)c4)n3)cc21` [Compound 546], for which the IC50 on BRG-1 and on BRM was less than 10 nM in each case.
Regarding `CC(C)(C)n1ccc(C(=O)NCC(=O)Nc2nc(-c3cccc(OC4CC4)c3F)cs2)c1` [Compound 547], the IC50 on BRG-1 was more than 100 nM; at BRM, more than 10 nM.
For the compound `CC1(n2ccc(C(=O)NCC(=O)Nc3nc(-c4cccc(OC5CC5)c4F)cs3)c2)COC1` [Compound 548], the IC50 at BRG-1 and on BRM was more than 100 nM each time.
With `COC[C@H](NC(=O)c1ccn(S(C)(=O)=O)c1)C(=O)Nc1nc(-c2ccc(F)c(N3CCC3)c2)cs1` [Compound 549], the IC50 was more than 10 nM at BRG-1 and less than 10 nM on BRM.
On to `COC[C@H](NC(=O)c1ccn(C(C)(C)C)c1)C(=O)Nc1nc(-c2ccc3c(=O)n(C)ccc3c2)cs1` [Compound 551], for which the IC50 on BRG-1 and at BRM was more than 10 nM each time.
Take `CS(=O)(=O)n1ccc(C(=O)NCC(=O)Nc2nc(-c3cccc(N4CC[C@H](N)C(F)(F)C4)c3)cs2)c1` [Compound 552]: the IC50 at BRG-1 and at BRM was more than 10 nM throughout.
Turning to `N#CC1(n2ccc(C(=O)NCC(=O)Nc3nc(-c4cccc(OC(F)(F)F)c4)cs3)c2)CC1` [Compound 553], the IC50 at BRG-1 and on BRM was more than 10 nM each time.
In the case of `N#CC1(n2ccc(C(=O)NCC(=O)Nc3nc(-c4cccc(OC5CC5)c4)cs3)c2)CC1` [Compound 554, 1-(1-cyanocyclopropyl)-N-[2-[[4-[3-(cyclopropoxy)phenyl]thiazol-2-yl]amino]-2-oxo-ethyl]pyrrole-3-carboxamide], the IC50 at BRG-1 was more than 100 nM; at BRM, more than 10 nM.
The like results for `N#CC1(n2ccc(C(=O)NCC(=O)Nc3nc(-c4cc(F)cc(OC5CC5)c4)cs3)c2)CC1` [Compound 555] were, in that order, more than 10 nM and more than 10 nM.
On to `N#CC1(n2ccc(C(=O)NCC(=O)Nc3nc(-c4cccc(OC5CC5)c4F)cs3)c2)CC1` [Compound 556], for which the figures for the IC50 at BRG-1 and on BRM were more than 100 nM and more than 10 nM, respectively.
For the compound `COC[C@H](NC(=O)c1ccn(S(C)(=O)=O)c1)C(=O)Nc1nc(-c2cccc(N3CCC(C(F)F)CC3)c2)cs1` [Compound 557, (S)—N-(1-((4-(3-(4-(difluoromethyl)piperidin-1-yl)phenyl)thiazol-2-yl)amino)-3-methoxy-1-oxopropan-2-yl)-1-(methylsulfonyl)-1H-pyrrole-3-carboxamide], the IC50 at BRG-1 and at BRM was more than 10 nM in each case.
As to `CS(=O)(=O)n1ccc(C(=O)NCC(=O)Nc2nc(-c3cccc(N4CC[C@@H](N)C(F)(F)C4)c3)cs2)c1` [Compound 558], the IC50 at BRG-1 and on BRM was less than 10 nM throughout.
With `N#CC1(n2ccc(C(=O)NCC(=O)Nc3nc(-c4cccc(OC5CC5)n4)cs3)c2)CC1` [Compound 559], the IC50 on BRG-1 and at BRM was more than 100 nM in each case.
For `C[C@@H]1CN(c2cccc(-c3csc(NC(=O)[C@H](C)NC(=O)c4ccn(C5(C#N)CC5)c4)n3)n2)C[C@H](C)O1` [Compound 560], the IC50 on BRG-1 and on BRM was more than 10 nM each time.
For the compound `COC[C@H](NC(=O)c1ccn(C(C)(C)C)c1)C(=O)Nc1nc(-c2ccc3c(F)cn(C)c(=O)c3c2)cs1` [Compound 561], the IC50 at BRG-1 and on BRM was less than 10 nM throughout.
With `Cn1ccc(-c2cccc(-c3csc(NC(=O)CNC(=O)c4ccn(C(C)(C)C#N)c4)n3)c2)n1` [Compound 562], the IC50 is more than 10 nM at BRG-1 and less than 10 nM on BRM.
The like results for `COC[C@H](NC(=O)c1ccn(C(C)(C)C)c1)C(=O)Nc1nc(-c2cc(F)c3ccn(C)c(=O)c3c2)cs1` [Compound 563] were, in that order, less than 10 nM and less than 10 nM.
Regarding `COC[C@H](NC(=O)c1ccn(C2(C)COC2)c1)C(=O)Nc1nc(-c2cc(F)c3ccn(C)c(=O)c3c2)cs1` [Compound 564], the IC50 at BRG-1 and at BRM was less than 10 nM in each case.
Consider `CN1CCc2c(F)ccc(-c3csc(NC(=O)CNC(=O)c4ccn(S(C)(=O)=O)c4)n3)c21` [Compound 565], for which the IC50 on BRG-1 and on BRM was more than 10 nM in each case.
`COCC[C@H](NC(=O)c1ccn(C(C)(C)C)c1)C(=O)Nc1nc(-c2ccc3ccn(C)c(=O)c3c2)cs1` [Compound 567]: the IC50 at BRG-1 and on BRM was more than 10 nM throughout.
Turning to `COC[C@H](NC(=O)c1ccn(C2(C#N)CC2)c1)C(=O)Nc1nc(-c2cccc(-c3ccn(C)n3)c2)cs1` [Compound 568], the IC50 at BRG-1 and at BRM was more than 10 nM in each case.
For the compound `CN1CCc2c(F)cc(-c3csc(NC(=O)CNC(=O)c4ccn(S(C)(=O)=O)c4)n3)cc21` [Compound 569], the IC50 on BRG-1 and at BRM was less than 10 nM each time.
For `CC(C)(C#N)n1ccc(C(=O)NCC(=O)Nc2nc(-c3cc(F)c4c(c3)OCC4)cs2)c1` [Compound 571], the results for the IC50 on BRG-1 and at BRM were more than 10 nM and less than 10 nM, respectively.
With `COC[C@H](NC(=O)c1ccn(C2(C)COC2)c1)C(=O)Nc1nc(-c2cccc(-c3ccn(C)n3)c2)cs1` [Compound 572], the IC50 on BRG-1 and at BRM was more than 10 nM each time.
`COC[C@H](NC(=O)c1ccn(S(C)(=O)=O)c1)C(=O)Nc1nc(-c2cccc(N3CCC3)c2F)cs1` [Compound 573]: the IC50 on BRG-1 and at BRM was more than 10 nM each time.
With `CS(=O)(=O)n1ccc(C(=O)NCC(=O)Nc2nc(-c3ccc4c(c3)OCO4)cs2)c1` [Compound 574], the IC50 on BRG-1 and on BRM was more than 10 nM throughout.
Regarding `CS(=O)(=O)n1ccc(C(=O)NCC(=O)Nc2nc(-c3cccc([C@@H]4CC4(F)F)c3)cs2)c1` [Compound 575], the IC50 at BRG-1 and on BRM was more than 10 nM in each case.
In the case of `CS(=O)(=O)n1ccc(C(=O)NCC(=O)Nc2nc(-c3cccc([C@H]4CC4(F)F)c3)cs2)c1` [Compound 576], the IC50 at BRG-1 is more than 10 nM; on BRM, less than 10 nM.
The like results for `COC(=O)N1CCC[C@@H](c2csc(NC(=O)CNC(=O)c3ccn(S(C)(=O)=O)c3)n2)C1` [Compound 578] were, in that order, more than 100 nM and more than 10 nM.
In the same order, the values of `COC(=O)N1CCC[C@H](c2csc(NC(=O)CNC(=O)c3ccn(S(C)(=O)=O)c3)n2)C1` [Compound 579] are more than 100 nM and more than 100 nM.
In the same order, the values of `COC(=O)N1CCC[C@@H](c2csc(NC(=O)CNC(=O)c3ccn(C(C)(C)C)c3)n2)C1` [Compound 580] are more than 100 nM and more than 100 nM.
On to `COC(=O)N1CCC[C@H](c2csc(NC(=O)CNC(=O)c3ccn(C(C)(C)C)c3)n2)C1` [Compound 581], for which the IC50 at BRG-1 and on BRM was more than 100 nM each time.
`COC[C@H](NC(=O)c1ccn(C(C)(C)C)c1)C(=O)Nc1nc(-c2ccc3ccn(C(F)F)c(=O)c3c2)cs1` [Compound 583]: the IC50 on BRG-1 and on BRM was more than 10 nM in each case.
For `COC[C@H](NC(=O)c1ccn(C(C)(C)C#N)c1)C(=O)Nc1nc(-c2ccc3ccn(C)c(=O)c3c2)cs1` [Compound 584], the IC50 at BRG-1 and at BRM was less than 10 nM in each case.
Consider `CS(=O)(=O)n1ccc(C(=O)NCC(=O)Nc2nc(-c3cccc(N4CC[C@H](C(F)F)C4)c3)cs2)c1` [Compound 585], for which the IC50 at BRG-1 is more than 10 nM; at BRM it was less than 10 nM.
For the compound `CS(=O)(=O)n1ccc(C(=O)NCC(=O)Nc2nc(-c3cccc(N4CC[C@@H](C(F)F)C4)c3)cs2)c1` [Compound 586], the IC50 on BRG-1 and on BRM was more than 10 nM each time.
As for `C[C@H](NC(=O)c1ccn(C2(C#N)CC2)c1)C(=O)Nc1nc(-c2cccc(-c3ccn(C)n3)c2)cs1` [Compound 588], the IC50 at BRG-1 was more than 100 nM; at BRM, more than 10 nM.
